Laboratory results published in ChEMBL document CHEMBL4007412, “Design, Synthesis, and Biological Evaluation of Mitochondria-Targeted Flavone-Naphthalimide-Polyamine Conjugates with Antimetastatic Activity” (J Med Chem, 2017).
Activity calls are given as the source filed them. The rule behind the calls is not given here.

Assays:
HepG2 [1] = test: Induction of ROS generation in human HepG2 cells at 20 uM after 24 hrs in presence of TOC by DCFH-DA-staining based HCS analysis; type: functional, cell-based
SMMC-7721 [2] = test: Antiproliferative activity against human SMMC7721 cells assessed as reduction in cell viability at 20 uM pre-treated with TOC after 48 hrs by MTT assay; type: functional, cell-based
[3] = Drug localization in human HepG2 cell endoplasmic reticulum at 10 uM after 8 hrs by ER tracker-staining based confocal microscopic analysis; type: ADME
HepG2 [4] = test: Induction of p53 expression in human HepG2 cells up to 20 uM after 24 hrs by Western blot analysis relative to control; type: functional, cell-based
HepG2 [5] = test: Induction of cleaved PARP expression in human HepG2 cells up to 20 uM pre-treated with NAC measured after 24 hrs by Western blot analysis; type: functional, cell-based
SMMC-7721 [6] = test: Cytotoxicity against human SMMC7721 cells assessed as cell growth inhibition after 48 hrs by MTT assay; type: functional, cell-based; details: SMMC-7721, 48 h
[7] = Drug uptake in human HepG2 cells assessed as PAT-mediated compound uptake by measuring fluorescent intensity at 10 uM after 2 to 8 hrs in presence of spermidine by HCS analysis; type: ADME, cell-based
[8] = Drug localization in human HepG2 cell nucleus at 10 uM after 8 hrs by propidium iodide-staining based microscopic analysis; type: ADME
HepG2 [9] = test: Effect on putrescine levels in human HepG2 cells at 20 uM after 24 hrs by HPLC analysis; type: functional, cell-based
HepG2 [10] = test: Induction of apoptosis in human HepG2 cells assessed as viable cells at 20 uM after 24 hrs by Annexin V-FITC/propidium iodide staining based flow cytometric analysis (reference value: 86 %); type: functional; details: HepG2, 24 h, read-out: Activity
[11] = Cytotoxicity against human QSG7701 cells assessed as reduction in cell viability up to 20 uM after 24 to 72 hrs by MTT assay; type: cell-based
[12] = Drug localization in human HepG2 cell golgi apparatus at 10 uM after 8 hrs by Golgi tracker-staining based confocal microscopic analysis; type: ADME
HepG2 [13] = test: Induction of apoptosis in human HepG2 cells assessed as reduction in viable cells up to 20 uM after 24 hrs by AO/EB double staining based flow cytometric analysis; type: functional, cell-based
HepG2 [14] = test: Disruption of mitochondrial membrane potential in human HepG2 cells at 20 uM after 24 hrs by JC-1 staining based flow cytometry; type: functional, cell-based
HepG2 [15] = test: Induction of ROS generation in human HepG2 cells at 20 uM after 24 hrs in presence of NAC by DCFH-DA-staining based HCS analysis; type: functional, cell-based
HepG2 [16] = test: Disruption of mitochondrial membrane potential in human HepG2 cells at 20 uM after 24 hrs by Rhodamine123 staining-based flow cytometry; type: functional, cell-based
Mus musculus [17] = test: Toxicity in Kunming mouse xenografted with […] cells assessed as effect on kidney weight index at 3 mg/kg, iv dosed every day starting from day 8 after tumor cell inoculation; type: organism-based; details: in vivo
HepG2 [18] = test: Induction of cleaved caspase 3 expression in human HepG2 cells up to 20 uM pre-treated with NAC measured after 24 hrs by Western blot analysis; type: functional, cell-based
[19] = Drug uptake in human SMMC7721 cells assessed as PAT-mediated cellular uptake at 10 uM by HCS analysis; type: ADME, cell-based; details: TDE = time-dependent effect
HepG2 [20] = test: Induction of intracellular ROS generation in human HepG2 cells at 20 uM after 8 hrs by DCFH-DA staining based HCS analysis relative to control; type: functional
SMMC-7721 [21] = test: Antiproliferative activity against human SMMC7721 cells assessed as reduction in cell viability at 20 uM pre-treated with NAC after 48 hrs by MTT assay; type: functional, cell-based
H22 [22] = test: Antimetastatic activity against […] xenografted in pulmonary metastasis Kunming mouse model assessed as reduction in tumor metastatic nodules at 3 mg/kg, iv dosed every day starting from day 8 after tumor cell inoculation by H/E staining based leica microscopic analysis; type: functional, organism-based
HepG2 [23] = test: Antiproliferative activity against human HepG2 cells assessed as reduction in cell viability at 20 uM pre-treated with TOC after 48 hrs by MTT assay; type: functional, cell-based
[24] = Drug uptake in human SMMC7721 cells assessed as PAT-mediated cellular uptake after 8 hrs by HCS analysis; type: ADME, cell-based
Mus musculus [25] = test: Toxicity in Kunming mouse xenografted with […] cells assessed as effect on heart weight index at 3 mg/kg, iv dosed every day starting from day 8 after tumor cell inoculation; type: organism-based; details: in vivo
HepG2 [26] = test: Antiproliferative activity against human HepG2 cells assessed as reduction in cell viability at 20 uM pre-treated with CAT after 48 hrs by MTT assay; type: functional, cell-based
HepG2 [27] = test: Induction of H2O2 production in human HepG2 cells; type: functional, cell-based
HepG2 [28] = test: Induction of apoptosis in human HepG2 cells assessed as late apoptotic cells at 20 uM after 24 hrs by Annexin V-FITC/propidium iodide staining based flow cytometric analysis (reference value: 8.96 %); type: functional
[29] = Drug localization in human HepG2 cell membranes at 10 uM after 8 hrs by DiO-staining based microscopic analysis; type: ADME
HepG2 [30] = test: Antiproliferative activity against human HepG2 cells assessed as reduction in cell viability at 20 uM pre-treated with NAC after 48 hrs by MTT assay; type: functional, cell-based
H22 [31] = test: Antitumor activity against […] xenografted in Kunming mouse assessed as suppression of tumor weight at 3 mg/kg, iv dosed every day starting from day 8 after tumor cell inoculation; type: functional

With `Cl.Cl.NCCCCNCCCCN1C(=O)c2cccc3c(-c4cc(=O)c5ccccc5o4)ccc(c23)C1=O` the Activity (HepG2 [1]) was “inactive”, the Activity (SMMC-7721 [2]) was “inactive” and the Drug uptake [3] was “Not Active”. For the same compound, the Activity (HepG2 [4]) was “Dose-dependent effect”, the Activity (HepG2 [5]) was “inactive” and the IC50 (SMMC-7721 [6]) was 14.1 µM. For the same compound, the Drug uptake [7] was “Not Active”, the Drug uptake [8] was “Not Active” and the Activity (HepG2 [9]) was “inactive”. For the same compound, the viability at 20 µM (HepG2 [10]) was 37.8%, the Activity [11] was “Non-Toxic” and the Drug uptake [12] was “Not Active”. For the same compound, the Activity (HepG2 [13]) was “Dose-dependent effect”, the Activity (HepG2 [14]) was “Active” and the Activity (HepG2 [15]) was “inactive”. For the same compound, the Activity (HepG2 [16]) was “Active”, the Activity (Mus musculus [17]) was “Non-Toxic” and the Activity (HepG2 [18]) was “inactive”. The Drug uptake [19] was “Tde”, the “fold change (FC)” value (HepG2 [20]) was 2.6 and the Activity (SMMC-7721 [21]) was “inactive”. For the same compound, the Activity (H22 [22]) was “Active”, the Activity (HepG2 [23]) was “inactive” and the Drug uptake [24] was “Dose-dependent effect”. The Activity (Mus musculus [25]) was “Non-Toxic”, the Activity (HepG2 [26]) was “inactive” and the Activity (HepG2 [27]) was “Active”. For the same compound, the Activity (HepG2 [28]) was 26.6%, the Drug uptake [29] was “Not Active” and the Activity (HepG2 [30]) was “inactive”. It also gave an Activity (H22 [31]) of 60.4%.
